In data set [1] the test system is Cryptosporidium parvum oocysts. The source says: Excystation, i.e., the release of sporozoites from the oocysts, was used to assess viability of the Cryptosporidium samples. COREXIT is 2-butoxyethanol (ethyleneglycol monobutyl ether), butyl cellosolve, butyl glycol, glycol ether eb. Other ethers similar to ethyleneglycol monobutyl ether may be used. This dispersant is composed of about 48% nonionic surfactants, including ethoxylated sorbitan mono- and trioleates (Tween 80 and Tween 85) and sorbitan monooleate (Span 80), about 35% anionic surfactants, including sodium dioctyl sulfosuccinate (AOT), and about 17% ethylene glycol monobutyl ether as a solvent EMULPHOR is an emulsifier derivative of corn oil. EMULPHOR may also be used rather than ALKAMUS. ALKAMUS is a polyethoxylated castor oil 40 mole ethoxlate. EMULPHOR from BASF, is a high molecular weight ether sulphate.

The next data set relates to Cryptosporidium oocysts. The data set is described as follows: Iodine exposure of Cryptosporidium oocysts (killing). Type of data set: cell-based. The note with it: iodine up to 100 ppm (saturation level), 30 and 60 min exposure. The protocol: (§1) Test studies confirmed these observations using doses of 5 and 15 ppm of iodine against three waterborne pathogens (Escherichia coli, Enterococcus faecalis and Pseudomonas aeruginosa). […] Unfortunately, experiments using iodine even up to 100 ppm (saturation level) were ineffective in killing Cryptosporidium oocysts when exposed for 30 and 60 min. periods, respectively.

Data set [2] concerns Escherichia coli, Enterococcus faecalis and Pseudomonas aeruginosa. Description: Iodine disinfection of waterborne bacterial pathogens. It counts as cell-based. The note with it: 5 ppm iodine. As to the method:
as §1

Another data set concerns Cryptosporidium. The note with it: ozone-exposed Cryptosporidium, accepted by USEPA; cited from earlier work.
In a further data set the test system is aquatic species. The note with it: USEPA scientific findings; cited from earlier work.
In the next data set the test system is E. coli. As to conditions: activated TTO, kill within 10 min or less; cited from earlier work.
For another data set, the system named is avian species. As to conditions: USEPA scientific findings; cited from earlier work.
The subject of data set [3] is Cryptosporidium parvum oocysts. This is another data set of the same source.
Method: Disinfection was assessed using cell culture infectivity as the test, this procedure being more definitive than excystation. […] The 90% inactivation is a Log10 reduction of 1.0.
Infectivity in cell cultures was used in this study. Although excystation is an acceptable way to assay for live sporozoites, infectivity in cell cultures is a definitive assay generally accepted by the scientific community for assessing Cryptosporidium oocyst viability/non-viability. This assay is virtually equivalent to using living mammals to confirm infectious organisms, but it provides better quantitation of viable/infectious organisms.
For data set [4] the following is noted: activated tetrasilver tetraoxide; cited from earlier work.
Setting [5] is: 2 ppm tetrasilver tetraoxide and 10 ppm potassium monopersulfate, excystation.
The mark [6] stands for this setting: 3 mg/L TTO, 15 mg/L persulfate, 1% cocktail, 60 min.
Setting [7] is: 2 and 3 mg/L activated TTO, irrespective of cocktail used.
Where [8] appears, read: activated 2 mg/L TTO in 1.0% cocktail, 60 min (study with 2, 5, 10 mg/L).

Several values for one entry are separate records, joined by “and”; a condition that tells them apart may be missing. Equal entries are not always repeated. Where two headings read alike, the source gives them in different places.

In the case of `II` [iodine], in [1] (saturated iodine solution with 1% cocktail of COREXIT and ALKAMUS EL 620, 3 hours), the inactivation of oocysts result was “ineffective”. In addition, the “killing of Cryptosporidium oocysts” value in the data set with Cryptosporidium oocysts is given as “ineffective”. Also, in [2] (within 5 min), the log10 reduction was determined as 6 log10. Moreover, the log10 inactivation in data set [2] (within 10 min of exposure) is not above 8 log10.

For `O=[O+][O-]` [ozone], the “Log10 reduction” value with Cryptosporidium is 2.0 Log 10.

Regarding `[Ag+].[Ag+].[Ag+].[Ag+].[O-2].[O-2].[O-2].[O-2]` [tetrasilver tetraoxide], the “toxicity to aquatic species” value in the data set with aquatic species is given as “toxic”. Also, the “concentration that kills the organisms” value in the data set with E. coli is recorded as 1-2 ppm. For the same molecule, the inactivation of oocysts in [1] (1% cocktail, 3 hours, 1×10^3 oocysts in 50 ml HMEM) stood at 19.4%. Moreover, the “viable oocysts by excystation” value in [1] (2 ppm tetrasilver tetraoxide and 10 ppm potassium monopersulfate) is 1.2+/−1.1%. Moreover, the kill in data set [1] (setting [5]) is 98.8%. The “log10 reduction in infectious Cryptosporidium parvum” value in data set [1] (setting [5]) is 2 log10 and 2.0 log10. Also, the “toxicity to avian species” value in the data set on avian species is on record as “practically non-toxic”. For the same molecule, the “Average Infectious Oocysts × 100,000” value in data set [3] (1 mg/L TTO) is listed as 68 × 100,000; in [3] (2 mg/L TTO), 35 × 100,000; in data set [3] (3 mg/L TTO), 13 × 100,000. Further, the “Average Log10 Reduction of Viable Oocysts (Inactivation)” value worked out at 0.23 Log10 in [3] (1 mg/L TTO), 0.83 Log10 in [3] (2 mg/L TTO) and 1.2 Log10 in [3] (3 mg/L TTO). For the same molecule, the “Average Percent Oocyst Inactivation of all Variables” value in data set [3] (1 mg/L TTO) is listed as 32.0%; in [3] (2 mg/L TTO), 65.0%; in data set [3] (3 mg/L TTO), 87.0%. In addition, the Log10 reduction in data set [3] (1 mg/L TTO, 0% cocktail, 60 min) was determined as 0.6 Log10; in [3] (2 mg/L TTO, 10 mg/L persulfate, 0% cocktail, 60 min), 1.8 Log10; in data set [3] (3 mg/L TTO, 0% cocktail, 60 min) it was 1.3 Log10; in data set [3] (setting [7]), 1.8 Log10; in data set [3] (setting [8]), 1.0 Log10. Besides, the inactivation in data set [3] (1 mg/L TTO, 0% cocktail, 60 min, 1.2×10^7 oocysts/50 mL) is on record as 75%; in data set [3] (cocktail concentration raised to 2%, 60 min), “Lesser, but significant inactivations”. Besides, the “Infectious Oocysts × 100,000 using 1% Cocktail” value in data set [3] (1 mg/L TTO, 5 mg/L persulfate, 1% cocktail) is 100 × 100,000; in data set [3] (2 mg/L TTO, 10 mg/L persulfate, 1% cocktail) it was 35 × 100,000; in [3] (3 mg/L TTO, 15 mg/L persulfate, 1% cocktail), 2 × 100,000. Besides, the “Infectious Oocytes × 100,000 using 0% Cocktail” value in data set [3] (2 mg/L TTO, 10 mg/L persulfate, 0% cocktail) is recorded as 2 × 100,000. In [3] (setting [6]), this molecule returned a Log10 oocyst reduction of 1.8 Log10. The “inactivation / kill of oocysts” value in data set [3] (setting [6]) was 98%. The “effectiveness of inactivation with cocktail versus average inactivation of infectious oocysts” value in data set [3] (3 mg/L TTO, cocktail present) came out at 6.5 times. Besides, the kill of oocysts in data set [3] (setting [7]) was 98%. For the same molecule, in data set [3] (setting [8]), the “oocyst inactivation relative to stock oocyst control” value is recorded as 90%. Besides, the Log10 reduction/inactivation entry in data set [3] (other test matrices (2, 5, 10 mg/L, with and without 1% cocktail), 60 min) is “less than a one Log10 reduction/inactivation”. Besides, the mutagenicity result in [4] is on record as “not mutagenic”.

The values are drawn from patent US20070023364A1, “Tetrasilver Tetraoxide as Disinfective Agent for Cryptosporidium” (priority 2005, published 2007).
